Experimental data reported in patent US20230149373A1, “USE OF BROMODOMAIN INHIBITORS FOR TREATMENT OF HUNTINGTON'S DISEASE” (RUMI SCIENTIFIC HOLDINGS, INC., priority 2020, published 2023).
Entries after “also recorded” stand apart in the source; their conditions may differ.

Key:
Format in all cases: cell-based, human
[1] = system: HD-56CAG neuruloids; assay: HD neuruloid phenotype reversal (AI-scored phenotypic rescue); conditions: for potency (EC50) in rescuing HD neuruloids: dose-dependent test of BRD9 inhibitors, FIG. 9A
[2] = system: HD-56CAG gastruloids; assay: HD gastruloid SOX17+ area rescue; conditions: 1 μM; 48 hrs CHIR and Activin
Protocol: BRD inhibitors were tested to determine whether they were able to rescue another HD phenotype in human gastruloids. When human embryonic stem cell colonies are stimulated for 48 hrs with CHIR and Activin a primitive-streak like population, SOX17+, is induced at the periphery (see FIG. 12a). Moreover, in HD gastruloids made from the HD-56CAG cells, the SOX17+ domain at the periphery is greatly expanded. This effect is even more pronounced when using a null HTT−/− cell line, which supports the findings that the HD mutation is in fact a loss of function mutation in a developmental context, as it phenocopies the absence of the protein.
Gastruloid induction: Using the protocol for coating micropatterned chips. after the final wash in PBS+/+, 8×10^5 cells were seeded on each coverslip in a defined volume of MEF-CM supplemented with 20 ng/ml bFGF (R&D Systems), 10 μM ROCK inhibitor (Y-27632, Abcam), 1× Penicillin-streptomycin (Thermo Fisher Scientific), 100 μg/ml Normocin (Invivogen) and left unperturbed for 10 minutes to ensure homogenous distribution across the patterns. ROCK inhibitor was removed from the medium 3 hours after seeding and cells were induced the following day with 50 ng/ml BM P4 (R&D Systems), 2 μM IWP2 (Stemgent), 6 μM CHIR99021 (EMD Millipore), 100 ng/ml ACTIVIN (R&D Systems) and small molecule treatments. Samples were fixed 48 hours later and analyzed by immunofluorescence.

[3] = system: HD-56CAG neuruloids; assay: HD neuruloid phenotype reversal (AI-scored phenotypic rescue); conditions: for rescue of HD neuruloids to the WT configuration: FIG. 10; for rescue of HD neuruloids to the WT configuration / rescue of HD neuruloid phenotype, primary screen images: qualitative; for hit call in panel of BRD inhibitors (rescue efficacy above and toxicity below threshold): single concentration of 10 μM, 96 well plates, same hit criteria as primary screen; for rescue of HD neuruloid phenotype, primary screen images: 10 μM, staining DAPI, PAX6, phalloidin
Protocol: Micropatterned cell culture on chips and neuruloid induction: Micropatterned glass coverslips (CYTOOCHIPS Arena A, Arena 500A, Arena EMB A) were first coated with 10 μg ml^−1 recombinant Laminin-521 (BioLamina, LN521-03) diluted in PBS+/+(Gibco) for 3 h at 37° C. Micropatterns were placed face-up onto a Parafilm that was seated in a 10 cm dish, then 800 μl of laminin solution was added to the micropattern. After 3 h at 37° C., the coated micropattern was transferred to a 35 mm dish with 5 ml of PBS+/+. Laminin was removed with six serial dilutions in PBS+/+(dilution 1:4) before two complete washes in PBS+/+. Then the coated micropattern was kept in PBS+/+ at 37° C. Cells were seeded as follows: cells growing in MEF-CM on culture dish were washed once with PBS−/− (Gibco), then treated with accutase (Stem Cell Technologies) for 5 min. Cells were then triturated with a pipette to ensure single cell suspension and accutase was diluted out with 4× HUESM medium supplemented with 20 ng ml^−1 bFGF and ROCK inhibitor, Y27632 (10 μM; Abcam ab120129). Cells were further diluted with the same medium and 5×10^5 (or as indicated) cells in 3.0 ml of medium were placed over the micropattern in a 35-mm tissue culture dish, then incubated at 37° C. After 3 h, the micropattern in a dish was washed once with PBS+/+. For SB+LDN condition: PBS+/+ was replaced with 3 N medium73 with 10 μM SB431542 (Stemgent 04-0010-10) and 0.2 μM LDN 193189 (Stemgent 04-0019). At days 3 and 5, the medium was replaced with the same fresh medium and incubated at 37° C. until day 7. For SB+BM P4 condition (neuruloid), PBS was replaced with HUESM with 10 μM SB431542 and 0.2 μM LDN 193189. At day 3, the medium was replaced with HUESM with 10 μM SB431542 and BM P4 (50 ng ml^−1 or indicated each experiment). At day 5, the medium was replaced with the same fresh medium then incubated until day 7.
(§1) Micropatterned cell culture on 96 well plates and imaging: The micropatterned cell culture on chips and neuruloid induction protocol was used with micropatterned 96 well plates (CYTOOPLATES Arena A, Arena 700). The neuruloid induction was modified so that all steps requiring media changes, cell dispensing as well as washes and incubations for immunofluorescence were performed with a EL406 washer/dispense robot. For cell seeding, a volume of 200 μl cell suspension at a density of 0.18M cells per ml was used. Plate imaging was performed with an InCell Analyzer 2000 high-content imager through a 4× lens.
(§2) A number of libraries consisting of 2080 compounds were screened in 96 well plates with micropatterned glass bottoms. In these plates, each well has around 27 individual neuruloids. During the screen, two plates of WT controls and two plates of HD untreated controls were reserved in order to have enough control data for training the deep neural network for later analysis. Compounds were applied to the test plates at day 0 of differentiation and re-applied at day 3 and day 5 during media change steps. Each compound was applied in a unique well, at a unique concentration of 10 uM. At day 7, plates were fixed and stained for DAPI, PAX6 and Phalloidin. After staining, plates were imaged and individual neuruloids in every well were segmented and labeled before being fed to the specific deep neural network.
Image analysis: image tiles acquired from micropatterned or plate culture experiments were stitched and background-corrected. A foreground mask was created to detect colonies by thresholding the DAPI channel and calculating alpha shapes in respect to colony size. Each detected colony was extracted from the corrected and stitched image.
Deep learning for quantification of phenotypic rescue: Multichannel WT and disease organoid images are split into training (70%) and validation (30%) images. A neural network (NN) is then trained on the training data set. The NN is coded using a machine-learning framework such as Pytorch. […]

[4] = system: expanded HTT and total HTT; assay: HTT levels in HD neuruloid lysates, ELISA-based meso scale discovery (MSD) electrochemiluminescence assay; conditions: for HTT levels reduction ability (expanded HTT and total HTT): 1 μM and 5 μM, versus DMSO control
Protocol: We therefore repeated our protocol for the formation of HD neuruloids in two genetic backgrounds: 56CAG and 72CAG and treated with the 5 BRD inhibitors disclosed in FIG. 9 at two concentrations: 1 uM and 5 uM. At the end of the differentiation protocol, neuruloids lysates were frozen and later analyzed for their HTT contents. Both expanded HTT levels and total HTT levels (expanded+regular) were quantified through ELISA-based meso scale discovery (MSD) electrochemiluminescence assay.
HD neuruloids were created in two genetic backgrounds: 56CAG and 72CAG; and treated with the 5 BRD inhibitors disclosed in FIG. 10 at two concentrations: 1 μM and 5 μM. At the end of the differentiation protocol, neuruloid lysates were analyzed for their HTT contents. Both expanded HTT levels and total HTT levels (expanded+regular) were quantified through ELISA-based meso scale discovery (MSD) electrochemiluminescence assay.

[5] = system: WT-20CAG and HD-56CAG neuruloids; assay: Neuruloid toxicity (autoencoder-based toxicity score)
Protocol: as §1, §2
Deep learning for quantification of cytotoxicity: An autoencoder based method was used to asses toxicity. These unsupervised neural networks encode data and compress it in a low dimensional latent representation. The unsupervised nature of this machine learning method has the advantage that the autoencoder learns a representation of the data without any additional information about the data (such as that it is derived from wild type or disease cell lines), and is thus unbiased in estimating the toxicity of compounds. The representation of the data in terms of vectors also has the advantage that differences in the wild type and disease phenotype can be removed from the vector space, since this difference is not relevant in determining toxicity. Toxicity was determined in the following way: First, the difference between wild type and disease is removed from the latent space. Then, the distance from the mean vector of the wild type and disease phenotypes is calculated, and compared to the standard deviation of the wild type and disease phenotypes. This distance is defined as the toxicity.

potency (EC50) in rescuing HD neuruloids [1]	SMILES	SOX17+ area at the periphery of HD gastruloids [2]	rescue of HD neuruloids to the WT configuration [3]	HTT levels reduction ability (expanded HTT and total HTT) ([4]; 56CAG and 72CAG neuruloids)	also measured
sub-micromolar	COc1cc(-c2cn(C)c(=O)c3cnccc23)cc(OC)c1CN(C)C [BI-7273]	significant reduction of the SOX17+ area	rescue HD neuruloids to the WT configuration	no HTT reduction ability	hit call in panel of BRD inhibitors (rescue efficacy above and toxicity below threshold) ([3]; listed as B17273): high enough efficacy while keeping a low toxicity and scores positively and hit
sub-micromolar	COc1cc(-c2cn(C)c(=O)c3cnccc23)c(OC)cc1CN(C)C [BI-9564]	–	rescue HD neuruloids to the WT configuration	no HTT reduction ability	hit call in panel of BRD inhibitors (rescue efficacy above and toxicity below threshold) [3]: did not score positively
sub-micromolar	CCOC(=O)Nc1cc(-c2ccc(C)c(NS(C)(=O)=O)c2)nn2c(C)nnc12 [Bromosporine]	significant reduction of the SOX17+ area	rescue HD neuruloids to the WT configuration	reduced both expanded HTT and total HTT levels; also recorded: has HTT lowering activity	concentrations at which a toxic response started to occur ([5]; WT and HD-56CAG neuruloids): above 1 μM; toxicity in the window of concentration ([5]; between 0.3 μM and 1 μM): low toxicity; toxicity score ([5]; primary screen, 10 uM, HD neuruloids, toxic signature >3): 1.93; rescue of HD phenotype, hit validation in small-scale experiment ([1]; 0.5 μM, staining SOX10, PAX6, N-CAD, qualitative): rescue of the disorganization induced by the HD gene; also recorded: rescued the HD phenotype; EC50 ([1]; Homo sapiens, dose response, 10 concentrations in triplicates, read-out: EC50 rescuing the neuruloids HD-56CAG phenotype): 120 nM; concentration at which fully effective ([1]; dose response, HD neuruloids): around 300 nM; rescue of HD neuruloid phenotype, primary screen images [3]: reversal of the HD phenotype towards the WT configuration; rescue of HD neuruloid phenotype, primary screen images ([3]; listed as bromosporine): rescues the HD neuruloids phenotype; phenotypic rescue ([3]; primary screen, 10 uM, HD neuruloids, AI score 0 = disease, 1 = WT, hit >0.95): 0.98; reduction of expanded HTT levels ([4]; 1 μM, 56CAG and 72CAG neuruloids): more than 50%; reduction of expanded HTT levels ([4]; 5 μM, all backgrounds (56CAG and 72CAG neuruloids)): more than 75%
sub-micromolar	CCn1cc(-c2cccc(C(F)(F)F)c2)c2sc(C(=N)NC3CCS(=O)(=O)CC3)cc2c1=O [I-BRD9]	–	rescue HD neuruloids to the WT configuration	–	–
sub-micromolar	COc1cc(-c2cn(C)c(=O)c3cnccc23)cc(OC)c1CN(C)CC(=O)NCCOCCOCCNc1cccc2c1C(=O)N(C1CCC(=O)NC1=O)C2=O (stereo not shown) [dBRD9]	significant reduction of the SOX17+ area	rescue HD neuruloids to the WT configuration	no HTT reduction ability	toxic profile relative to Bromosporine ([5]; dose-dependent test, FIG. 9B): lower than Bromosporine
